Earlier results as cited in US10328118B2, “High purity oritavancin and method of producing same” (priority 2014, dated 2019).
Read-outs that look alike come from different tables or passages of the source.

Row | Compound | teratogenicity (animal models; animal models) | “red man” syndrome (histamine-like response) during infusion (subjects; rapid infusion into subjects) | teratogenicity (animal models; in vivo) | “red man” syndrome (histamine-like response) during infusion (subjects; in vivo)
1 | CN[C@H](CC(C)C)C(=O)N[C@H]1C(=O)N[C@@H](CC(N)=O)C(=O)N[C@H]2C(=O)N[C@H]3C(=O)N[C@H](C(=O)N[C@H](C(=O)O)c4cc(O)cc(O)c4-c4cc3ccc4O)[C@H](O)c3ccc(c(Cl)c3)Oc3cc2cc(c3O[C@@H]2O[C@H](CO)[C@@H](O)[C@H](O)[C@H]2O[C@H]2C[C@](C)(N)[C@H](O)[C@H](C)O2)Oc2ccc(cc2Cl)[C@H]1O [vancomycin] | non-teratogenic | associated with the “red man” syndrome | – | –
2 | teicoplanin | – | – | non-teratogenic | not seen
